Laboratory results as given in patent US20180153840A1, “THE COMPOSITIONS OF GLYCEROL AND /OR NON-TOXIC AMINO ACIDS FOR INHIBITING AND DESTROYING BIOFILM, INCLUDING RELATED METHODS” (priority 2015, published 2018).
Entries after “also recorded” stand apart in the source; their conditions may differ.

What was measured:
[1] = test system: bacterial and fungal biofilms; experiment: In vitro testing on bacterial and fungal biofilms; type: cell-based; details: for effect on bacterial and fungal biofilm (in words): in vitro; for neutral, effect on bacterial or fungal biofilms: both assays (sustained inhibition and disruption)
Description: (§1) For fungal biofilm assays, all solutions were prepared in RPMI 1640 medium. All bacterial biofilm solutions were prepared in Trypic Soy Broth (TSB), supplemented with 1% glucose (henceforth referred to as TSB-G). All subsequent procedures were performed in a manner that maintained sterility. A solution of each amino acid to be tested was prepared in weight to volume concentrations ranging from 0.1-5.0%. Amino acids were also tested in combinations. Compound solutions were homogenized with gentle agitation in the dark (4° C., 24 hours) before use.
(§2) All biofilm assays were performed using 384-well non-tissue culture treated polystyrene plates. The fungal species tested are as follows: Candida albicans, Candida guilliermondii Candida parapsilosis, Candida glabrata, Candida tropicalis and Candida dubliniensis. The bacterial species tested are as follows: Staphylococcus aureus (standard wild type and methicillin-resistant strain USA300), Escherichia coli, Pseudomonas aeruginosa and Staphylococcus epidermidis.
(§3) Fungal strains were streaked on Yeast Peptone Dextrose (YPD) agar plates and incubated at 30° C. for 48 hours. A single colony from each strain to be tested was inoculated into YPD broth and grown for 12 hours, at 30° C., shaking at 225 rpm. For the fungal biofilm inhibition assay, 1 μl of saturated overnight cell culture was added to either 80 μL of RPMI-1640 or RPMI-1640 supplemented with the amino acid compound solution to be tested, in a 384-well plate. The cells were allowed to adhere to the plate for 90 minutes at 37° C. with shaking (350 rpm). Loosely bound cells were washed once with phosphate buffered saline (PBS) and 80 ul of RPMI-1640, or RPMI-1640 supplemented with the amino acid compound solution was added to the plate. The plate was further incubated for 24 hours at 37° C. with shaking (350 rpm). Media was carefully aspirated and the biofilm was measured for fungal cell concentration by optical density at 600 nm. Twelve replicates were performed for each tested condition and the reported values were normalized to the control (RPMI-1640 media only).
(§4) For the fungal biofilm disruption assays, 80 μL of RPMI-1640 was added to the plate, along with 1 μL of overnight cell culture. The cells were allowed to adhere to the plate for 90 minutes at 37° C. with shaking (350 rpm). Loosely bound cells were washed once with PBS and 80 μL of RPMI-1640 was added to the plate. The plate was further incubated for 24 hours at 37° C. with shaking (350 rpm). Media was carefully aspirated from the mature biofilm and 80 μL of RPMI-1640, or RPMI-1640 supplemented with the amino acid compound solution to be tested, was gently added to the plate. The plate was further incubated for 24 hours at 37° C. with shaking (350 rpm). Media was carefully aspirated and the biofilm was measured for fungal cell concentration by optical density at 600 nm. Twelve replicates were performed for each tested condition and the reported values are normalized to the control (RPMI-1640 media only).
(§5) Bacterial strains were streaked on Blood Agar plates (5% sheep blood in Tryptic Soy Broth) and incubated at 37° C. for 24 hours. A single colony from each strain to be tested was inoculated in a TSB broth and grown for 12 hours, at 37° C. with shaking (225 rpm).
(§6) For the bacterial biofilm inhibition assays, 1 μL of saturated overnight cell culture was added to either 80 μL of TSB-G, or TSB-G supplemented with the amino acid compound solution to be tested, in a 384-well plate. The cells were allowed to adhere to the plate for 60 minutes at 37° C. without shaking. The media was carefully aspirated and 80 μL of TSB-G, or TSB-G supplemented with the amino acid compound solution was added to the plate. The plate was further incubated for 24 hours at 37° C. without shaking. Media was carefully aspirated and the biofilm was measured for bacterial cell concentration by optical density at 600 nm.

[2] = test system: bacterial biofilms; experiment: Bacterial biofilm assays (sustained inhibition and/or disruption); type: cell-based, Staphylococcus aureus; details: for support (improve) bacterial biofilm growth: based on the two assays (sustained inhibition and/or disruption); for anti-biofilm properties against bacterial biofilms: individually, about 0.1 to about 5.0% weight to volume (cystathionine 0.2%), at least one of the two assays
Description: as §1, §2, §5
as §6, with “nm. Eight or twelve replicates were performed for each tested condition and the reported values were normalized to the control (TSB-G media only).” for “nm.”
(§7) For the bacterial biofilm disruption assays, 80 μL of TSB-G was added to the plate, along with 1 μL of overnight cell culture. The cells were allowed to adhere to the plate for 60 minutes at 37° C. without shaking. The media was carefully aspirated and 80 μL of TSB-G was added to the plate. The plate was further incubated for 24 hours at 37° C. without shaking. Media was carefully aspirated from the mature biofilm and 80 μL of TSB-G, or TSB-G supplemented with the amino acid to be tested, was gently added to the plate. The plate was further incubated for 24 hours at 37° C. without shaking. Media was aspirated and the biofilm was measured for bacterial cell concentration by optical density at 600 nm. Twelve replicates were performed for each tested condition and the reported values were normalized to the control (TSB-G media only).

[3] = test system: S. aureus biofilm; experiment: Bacterial biofilm inhibition assay; type: cell-based, Staphylococcus aureus; details: for activation at 1 %: Staphylococcus aureus, read-out: Promote B Biofilm
Description: as §1, §2, §5
as §6, with “nm. Eight or twelve replicates were performed for each tested condition and the reported values were normalized to the control (TSB-G media only).” for “nm.”

[4] = test system: S. aureus biofilm; experiment: Bacterial biofilm disruption assay; type: cell-based; details: Staphylococcus aureus; for activation at 1 %: read-out: Promote B Biofilm; for inhibition at 1 %: read-out: Reduce B Biofilm
Description: as §1, §2, §5, §7

[5] = test system: fungal biofilms; experiment: Fungal biofilm assays (sustained inhibition and/or disruption); type: cell-based, Candida albicans; details: administered individually; at least one of the two assays (sustained inhibition and/or disruption)
Description: as §1, §2, §3, §4

[6] = sustained inhibition assay, S. aureus, 1% amino acid, p≤0.001
[7] = disruption assay, S. aureus, 1% amino acid, p≤0.001

| SMILES | effect on bacterial and fungal biofilm (in words) [1] | support (improve) bacterial biofilm growth [2] | activation at 1 % [3, 6] | activation at 1 % [4, 7] | also measured |
| --- | --- | --- | --- | --- | --- |
| C[C@@H](O)[C@H](N)C(=O)O [Threonine, L-threonine] | promote bacterial and fungal biofilm | support (improve) bacterial biofilm growth | 10 to 30% |  |  |
| CCC(N)C(=O)O (centres unmarked) [2 Aminobutyric Acid, 2-aminobutyric acid] |  |  |  |  | neutral, effect on bacterial or fungal biofilms [1]: no effect on bacterial or fungal biofilms |
| NCCC[C@H](N)C(=O)O [Ornithine, L-ornithine] |  | support (improve) bacterial biofilm growth |  | 10 to 30% |  |
| NC(=O)CC[C@H](N)C(=O)O [Glutamine, L-glutamine] |  |  |  |  | neutral, effect on bacterial or fungal biofilms [1]: no effect on bacterial or fungal biofilms |
| O=C(O)[C@@H]1CCCN1 [Proline, L-proline] | promote bacterial and fungal biofilm | support (improve) bacterial biofilm growth |  | 10 to 30% |  |
| N[C@@H](Cc1ccccc1)C(=O)O [Phenylalanine, L-phenylalanine] | promote bacterial and fungal biofilm | support (improve) bacterial biofilm growth | 10 to 30% | 10 to 30% |  |
| NC(=O)NCCC[C@H](N)C(=O)O [Citrulline, L-citrulline] |  | support (improve) bacterial biofilm growth |  |  | activation at 1 % [4]: 10 to 30%; activation at 1 % [3]: 10 to 30% |
| N[C@@H](Cc1ccc(O)cc1)C(=O)O [Tyrosine, L-tyrosine] | neutral effect on biofilm |  |  |  | neutral, effect on bacterial or fungal biofilms [1]: no effect on bacterial or fungal biofilms |
| NC(CCCC(=O)O)C(=O)O (centres unmarked) [2 Aminoadipic Acid, 2-aminoadipic acid] |  |  |  |  | anti-biofilm properties against bacterial biofilms [2]: anti-biofilm properties against bacterial biofilms; inhibition at 1 % [4, 7]: 10 to 30%; Reduce B Biofilm [3, 6]: • (a single dot (●) signifies an effect in a range of about 10 to about 30% change) |
| NCCCC[C@H](N)C(=O)O [Lysine, L-lysine] | promote bacterial and fungal biofilm | support (improve) bacterial biofilm growth |  |  | activation at 1 % [4]: 10 to 30%; activation at 1 % [3]: 10 to 30% |
| N=C(N)NCCC[C@H](N)C(=O)O [Arginine, L-arginine] | promote bacterial and fungal biofilm | support (improve) bacterial biofilm growth |  |  | activation at 1 % [4]: 10 to 30%; activation at 1 % [3]: 10 to 30% |
| CSCC[C@H](N)C(=O)O [Methionine, L-methionine] | promote bacterial and fungal biofilm | support (improve) bacterial biofilm growth | 10 to 30% |  |  |
| NCC(=O)O [Glycine, L-glycine] | promote bacterial and fungal biofilm | support (improve) bacterial biofilm growth | 10 to 30% | 10 to 30% |  |
| OCC(O)CO [glycerol] | no measurable effect; also recorded: not found to have antibiofilm effect |  |  |  |  |
| NCCS(=O)(=O)O [Taurine, L-taurine] |  | support (improve) bacterial biofilm growth | 10 to 30% | 10 to 30% |  |
| N[C@@H](CO)C(=O)O [Serine, L-serine] | promote bacterial and fungal biofilm | support (improve) bacterial biofilm growth | 10 to 30% | 10 to 30% |  |
| NC(=O)C[C@H](N)C(=O)O [Asparagine, L-asparagine] |  | support (improve) bacterial biofilm growth | 10 to 30% |  |  |
| C[C@H](N)C(=O)O [Alanine, L-alanine] | promote bacterial and fungal biofilm | support (improve) bacterial biofilm growth |  | 10 to 30% |  |
| N[C@@H](Cc1c[nH]cn1)C(=O)O [Histidine, L-histidine] |  |  |  |  | neutral, effect on bacterial or fungal biofilms [1]: no effect on bacterial or fungal biofilms |
| NCCC(=O)O [Beta-Alanine, Beta-alanine] |  |  |  |  | anti-biofilm properties against bacterial biofilms [2]: anti-biofilm properties against bacterial biofilms; Reduce B Biofilm [3, 6]: • (a single dot (●) signifies an effect in a range of about 10 to about 30% change) |
| NCCOP(=O)(O)O [Phosphoethanolamine, O-phosphoethanolamine] |  |  |  |  | anti-biofilm properties against bacterial biofilms [2]: anti-biofilm properties against bacterial biofilms; inhibition at 1 % [4, 7]: 10 to 30%; Reduce B Biofilm [3, 6]: • (a single dot (●) signifies an effect in a range of about 10 to about 30% change) |
| N[C@@H](Cc1c[nH]c2ccccc12)C(=O)O [Tryptophan, L-tryptophan] | promote bacterial and fungal biofilm | support (improve) bacterial biofilm growth |  |  | activation at 1 % [3]: 10 to 30% |
| N[C@@H](CCS)C(=O)O [Homocysteine, L-homocysteine] |  |  |  |  | anti-biofilm properties against bacterial biofilms [2]: anti-biofilm properties against bacterial biofilms; anti-biofilm properties against fungal biofilms [5]: anti-biofilm properties against fungal biofilms |
| CC(C)C[C@H](N)C(=O)O [Leucine, L-leucine] | promote bacterial and fungal biofilm | support (improve) bacterial biofilm growth | 10 to 30% | 10 to 30% |  |
| CC[C@H](C)[C@H](N)C(=O)O [Isoleucine, L-isoleucine] | promote bacterial and fungal biofilm | support (improve) bacterial biofilm growth |  | 10 to 30% |  |
